Test results: patent US9464064B2, “HCV helicase inhibitors and methods of use thereof” (University of Kansas, priority 2011, dated 2016)
Starred links: 1 amine or outer side, 2 acyl side, 3 side chain; linkers in the order of their positions; H or OH if unused. Positions of bridges follow the written chain, without caps; N, C: chain ends. Non-standard residues stand in square brackets, D forms with d. Residues, ends and D or L forms follow the SMILES beside them. Chains are numbered I, II in the order given. Actinocin(9to1) = Cc1c2oc3c(C)ccc(C(=O)[*:1])c3nc-2c(C(=O)[*:2])c(N)c1=O; NMeV = CN[C@H](C(=O)O)C(C)C; Sar = CNCC(=O)O

Target: T1, HCV NS3 helicase NS3h_1b(con1) (Hepatitis C virus genotype 1b, UniProt Q9WMX2)
T1 construct: truncated C-terminally His-tagged NS3 proteins lacking the N-terminal protease, called NS3h; His-tag (C); made in house
Assay: MBHA screen of NCI mechanistic set library at 20 μM (percent inhibition, compound interference)
Format: biochemical
Conditions: compounds at 20 μM; for Inh. (%) (Inhibition): calculated from Equation 1
Procedure: All molecular beacon-based helicase assays (MBHAs) were performed according to known methods (Belon & Frick (2008) supra; Belon & Frick (2009) supra). […] In each flat, black 384-well plate, 56 compounds were tested, in triplicate, along with three negative controls (DMSO only), three positive controls (500 nM dT20), and two wells with no enzyme. Fluorescence was read before ATP (F0) addition and 30 minutes after ATP was added to 1 mM (F30) using a Tecan Infinite M200 fluorescence microplate reader with excitation and emission wavelengths set to 643 and 670 nm, respectively. Percent inhibition was calculated with equation 1, and compound interference in the MBHA was calculated with equation 2.
In Equations 1 and 2, Fc0 is the fluorescence of the reactions containing the test compound before adding ATP, Fc30 is the fluorescence of the test compound reaction 30 minutes after adding ATP. F(−)0 is the average of three DMSO-only negative control reactions before adding ATP and F(−)30 is the average of three DMSO-only reactions 30 minutes after adding ATP.
To identify HCV helicase inhibitors, the MBHA was first used to screen the National Cancer Institute Developmental Therapeutics Program's mechanistic set library. In total, 827 compounds (at 20 μM) were screened using a MBHA with a DNA substrate (Table 1). Compounds were ranked by their ability to inhibit HCV helicase-catalyzed DNA unwinding as calculated from Equation 1.
Compound interference in the MBHA was evaluated by comparing the fluorescence of reactions containing each compound to the fluorescence of DMSO-only negative controls before ATP was added.

[1] = MBHA with DNA substrate, assay interference calculated with Equation 2
[2] = assay interference calculated with Equation 2 (fluorescence vs DMSO-only controls before ATP)

T1 sequence (Q9WMX2 1192-1657): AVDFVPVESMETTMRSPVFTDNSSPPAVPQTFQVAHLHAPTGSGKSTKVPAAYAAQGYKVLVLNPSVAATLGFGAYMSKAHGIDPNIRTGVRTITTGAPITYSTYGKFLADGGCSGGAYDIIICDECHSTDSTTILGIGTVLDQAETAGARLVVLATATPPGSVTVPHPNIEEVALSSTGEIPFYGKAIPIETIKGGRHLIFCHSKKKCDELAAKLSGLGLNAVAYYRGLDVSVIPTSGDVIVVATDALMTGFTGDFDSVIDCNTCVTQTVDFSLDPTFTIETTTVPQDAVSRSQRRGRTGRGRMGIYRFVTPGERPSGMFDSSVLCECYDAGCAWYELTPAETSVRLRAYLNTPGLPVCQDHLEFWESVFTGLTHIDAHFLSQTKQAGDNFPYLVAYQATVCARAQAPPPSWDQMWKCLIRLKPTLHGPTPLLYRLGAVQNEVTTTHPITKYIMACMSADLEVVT

Compound: O=C(O)c1ccc(NC(c2ccccc2)c2ccc3cccnc3c2O)cc1 (stereo not shown) [Compound 1011]
- Int.* (Ratio) (Interference) [1]: 0.87 Ratio
- Inh. (%) (Inhibition) (MBHA with DNA substrate): 3.7%

Compound: NC1(C(=O)O)CCCC1 [Compound 1026]
- Inh. (%) (Inhibition) (MBHA with a DNA substrate): 9.0%
- Int.* (Ratio) (Interference) [2]: 0.90 Ratio

Compound: CC(C)(Br)C(=O)C(Br)Br [Compound 1027]
- Inh. (%) (Inhibition) (MBHA with a DNA substrate): 7.0%
- Int.* (Ratio) (Interference) [2]: 0.91 Ratio

Compound: c1coc(CNc2ncnc3[nH]ncc23)c1 [Compound 1620]
- Inh. (%) (Inhibition) (MBHA with a DNA substrate): −3.0%
- Int.* (Ratio) (Interference) [2]: 1.06 Ratio

Compound: CN(C)C(=S)SSC(=S)N(C)C [Compound 1771]
- Int.* (Ratio) (Interference) [1]: 0.98 Ratio
- Inh. (%) (Inhibition) (MBHA with DNA substrate): 0.2%

Compound: C1CCNCC1.S=C(S)N1CCCCC1 [Compound 1906]
- Int.* (Ratio) (Interference) [1]: 1.17 Ratio
- Inh. (%) (Inhibition) (MBHA with DNA substrate): −1.6%

Compound: Cc1cc(O)c(C(C)C)cc1C1(c2cc(C(C)C)c(O)cc2C)OC(=O)c2ccccc21 [Compound 2186]
- Inh. (%) (Inhibition) (MBHA with a DNA substrate): −22.0%
- Int.* (Ratio) (Interference) [2]: 1.01 Ratio

Compound: CC(C)C1(Cl)CCC2C3(C)CCCC(C)(C(=O)O)C3CC(Cl)C2(Cl)C1Cl (stereo not shown) [Compound 2979]
- Int.* (Ratio) (Interference) [1]: 1.00 Ratio
- Inh. (%) (Inhibition) (MBHA with DNA substrate): −12.5%

Compound: Cc1c2oc3c(C)ccc(C(=O)N[C@@H]4C(=O)N[C@H](C(C)C)C(=O)N5CCC[C@H]5C(=O)N(C)CC(=O)N(C)[C@@H](C(C)C)C(=O)O[C@@H]4C)c3nc-2c(C(=O)N[C@@H]2C(=O)N[C@H](C(C)C)C(=O)N3CCC[C@H]3C(=O)N(C)CC(=O)N(C)[C@@H](C(C)C)C(=O)O[C@@H]2C)c(N)c1=O [Compound 3053] (I: T[dV]P[Sar][NMeV] / II: T[dV]P[Sar][NMeV]; ester I:1-I:C, II:1-II:C; linker I:N-II:N via Actinocin(9to1))
- Int.* (Ratio) (Interference) [1]: 0.55 Ratio
- Inh. (%) (Inhibition) (MBHA with DNA substrate): 67.5%

Compound: O=Nc1ccc(O)c2ncccc12 [Compound 3852]
- Int.* (Ratio) (Interference) [1]: 1.01 Ratio
- Inh. (%) (Inhibition) (MBHA with DNA substrate): −15.7%

Compound: c1ccc(-c2cccc(-c3ccccn3)n2)nc1 [Compound 3905]
- Int.* (Ratio) (Interference) [1]: 0.92 Ratio
- Inh. (%) (Inhibition) (MBHA with DNA substrate): 5.7%

Compound: C1COCCN1.S=C(S)N1CCOCC1 [Compound 4114]
- Inh. (%) (Inhibition) (MBHA with a DNA substrate): 7.2%
- Int.* (Ratio) (Interference) [2]: 1.15 Ratio

Compound: CC1=CC(=O)c2ccccc2C1=O [Compound 4170]
- Inh. (%) (Inhibition) (MBHA with a DNA substrate): −27.3%
- Int.* (Ratio) (Interference) [2]: 1.09 Ratio

Compound: Cc1ccc2ccc3ccc(C)nc3c2n1 [Compound 4280]
- Int.* (Ratio) (Interference) [1]: 1.01 Ratio
- Inh. (%) (Inhibition) (MBHA with DNA substrate): −9.2%

Compound: COC1CC(OC2CCC3(C=O)C4CCC5(C)C(C6=CC(=O)OC6)CCC5(O)C4CCC3(O)C2)OC(C)C1OC1OC(CO)C(O)C(O)C1O (stereo not shown) [Compound 4320]
- Int.* (Ratio) (Interference) [1]: 0.95 Ratio
- Inh. (%) (Inhibition) (MBHA with DNA substrate): −12.6%

Compound: C=C(C)[C@@H]1CC[C@]2(CO)CC[C@]3(C)[C@H](CC[C@@H]4[C@@]5(C)CC[C@H](O)C(C)(C)[C@@H]5CC[C@]43C)[C@@H]12 [Compound 4644]
- Int.* (Ratio) (Interference) [1]: 1.32 Ratio
- Inh. (%) (Inhibition) (MBHA with DNA substrate): −13.9%

Compound: Nc1nncs1 [Compound 4728]
- Int.* (Ratio) (Interference) [1]: 1.07 Ratio
- Inh. (%) (Inhibition) (MBHA with DNA substrate): 5.9%

Compound: O=[N+]([O-])c1ccc(N=Nc2c(O)[nH]c3ccccc23)c([N+](=O)[O-])c1 [Compound 4810]
- Int.* (Ratio) (Interference) [1]: 1.01 Ratio
- Inh. (%) (Inhibition) (MBHA with DNA substrate): −15.4%

Compound: CCN(CC)C(=S)S [Compound 4857]
- Int.* (Ratio) (Interference) [1]: 1.07 Ratio
- Inh. (%) (Inhibition) (MBHA with DNA substrate): −8.0%

Compound: COc1ccc(O)cc1 [Compound 4960]
- Inh. (%) (Inhibition) (MBHA with a DNA substrate): −4.5%
- Int.* (Ratio) (Interference) [2]: 0.90 Ratio

Compound: CO[C@H]1[C@@H](O)[C@@H](C)O[C@H](O[C@H]2[C@H](Oc3cccc4c(O)c5c(=O)oc6ccc(C)c7c(=O)oc(c34)c5c67)O[C@H](C)[C@H](O)[C@@H]2O)[C@@H]1O [Compound 5159]
- Int.* (Ratio) (Interference) [1]: 1.03 Ratio
- Inh. (%) (Inhibition) (MBHA with DNA substrate): 38.6%

Compound: Nc1nc(N)c(N=Nc2ccccc2)c(=O)[nH]1 [Compound 5200]
- Inh. (%) (Inhibition) (MBHA with a DNA substrate): 7.0%
- Int.* (Ratio) (Interference) [2]: 1.02 Ratio

Compound: Nc1ccccc1N [Compound 5354]
- Inh. (%) (Inhibition) (MBHA with a DNA substrate): 10.6%
- Int.* (Ratio) (Interference) [2]: 0.97 Ratio
